Drawing on the kinase profiling compilation of Christmann-Franck et al. (2016), this text covers kinase still bound, per cent of control for nine compounds.

What all share (assay): KINOMEscan competition binding
Conditions in all cases: compound 10.0 µM

Assay [1] concerns PIK3CA (human), P42336 [H1047L].
The test system of assay [2] is FGFR3 (human), P22607 [G697C].
Assay [3] relates to PIK3CA (human), P42336 [E542K].
The test system of assay [4] is EGFR (human), P00533 [G719C].
Assay [5] concerns KIT (human), P10721 [A829P].
Assay [6] deals with BMX (human), P51813 [V600E].
Assay [7] has as its system KIT (human), P10721 [D816H].
For assay [8], the system named is FLT3 (human), P36888 [D835Y].
The subject of assay [9] is PIK3CA (human), P42336 [M1043I].
Assay [10] relates to RET (human), P07949 [V804L].
For assay [11], the system named is EGFR (human), P00533 [L858R].
The test system of assay [12] is MET (human), P08581 [M1250T].
Assay [13] has as its system EGFR (human), P00533 [A750P; 747-749 del].
For assay [14], the system named is LRRK2 (human), Q5S007 [G2019S].

KIT (human), P10721 [D816H], sequence (P10721 whole entry D816H, looked up): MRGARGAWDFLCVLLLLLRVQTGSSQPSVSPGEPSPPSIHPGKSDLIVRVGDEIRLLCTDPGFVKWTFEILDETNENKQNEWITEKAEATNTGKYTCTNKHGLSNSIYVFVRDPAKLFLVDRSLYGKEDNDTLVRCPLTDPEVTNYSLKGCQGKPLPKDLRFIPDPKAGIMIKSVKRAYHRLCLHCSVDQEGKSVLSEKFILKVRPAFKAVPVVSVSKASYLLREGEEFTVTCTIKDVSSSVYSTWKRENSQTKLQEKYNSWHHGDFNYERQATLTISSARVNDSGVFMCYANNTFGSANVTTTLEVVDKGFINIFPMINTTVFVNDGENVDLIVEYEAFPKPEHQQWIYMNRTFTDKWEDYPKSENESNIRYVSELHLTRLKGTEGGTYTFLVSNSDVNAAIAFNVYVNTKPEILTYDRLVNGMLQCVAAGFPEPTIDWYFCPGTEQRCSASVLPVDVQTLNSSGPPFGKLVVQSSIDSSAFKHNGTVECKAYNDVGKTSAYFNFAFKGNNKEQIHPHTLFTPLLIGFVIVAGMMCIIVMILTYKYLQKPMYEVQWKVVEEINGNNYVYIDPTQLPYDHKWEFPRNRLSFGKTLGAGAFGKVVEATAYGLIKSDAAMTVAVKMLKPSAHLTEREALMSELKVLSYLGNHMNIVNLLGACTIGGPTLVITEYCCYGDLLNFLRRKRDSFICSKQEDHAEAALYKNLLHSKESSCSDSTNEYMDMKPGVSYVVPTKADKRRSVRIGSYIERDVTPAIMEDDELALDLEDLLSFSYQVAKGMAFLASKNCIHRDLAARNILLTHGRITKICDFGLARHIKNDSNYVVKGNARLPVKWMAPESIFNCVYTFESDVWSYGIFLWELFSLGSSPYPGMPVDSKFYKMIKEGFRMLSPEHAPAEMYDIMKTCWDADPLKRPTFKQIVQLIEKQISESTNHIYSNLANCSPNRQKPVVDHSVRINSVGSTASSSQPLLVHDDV
BMX (human), P51813 [V600E], sequence (P51813 whole entry, looked up, stated change not applied): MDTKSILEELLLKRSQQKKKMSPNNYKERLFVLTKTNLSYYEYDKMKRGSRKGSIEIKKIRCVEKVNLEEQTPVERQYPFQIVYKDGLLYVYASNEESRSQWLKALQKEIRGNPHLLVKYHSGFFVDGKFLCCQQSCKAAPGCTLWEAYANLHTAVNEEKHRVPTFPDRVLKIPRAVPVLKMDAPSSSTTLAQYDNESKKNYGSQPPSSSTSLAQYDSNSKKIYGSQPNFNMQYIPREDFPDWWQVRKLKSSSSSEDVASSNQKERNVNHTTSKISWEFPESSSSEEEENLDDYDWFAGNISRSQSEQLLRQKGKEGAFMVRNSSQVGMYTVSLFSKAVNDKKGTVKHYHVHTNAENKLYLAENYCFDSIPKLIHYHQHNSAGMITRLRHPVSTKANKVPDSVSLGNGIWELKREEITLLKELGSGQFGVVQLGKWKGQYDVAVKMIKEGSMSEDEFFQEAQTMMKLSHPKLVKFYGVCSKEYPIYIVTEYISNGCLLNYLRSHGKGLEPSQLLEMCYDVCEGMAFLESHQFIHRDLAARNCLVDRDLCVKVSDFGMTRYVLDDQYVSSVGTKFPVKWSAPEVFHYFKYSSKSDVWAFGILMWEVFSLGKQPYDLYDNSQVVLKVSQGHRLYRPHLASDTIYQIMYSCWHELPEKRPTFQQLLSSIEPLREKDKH
PIK3CA (human), P42336 [H1047L], sequence (P42336 whole entry H1047L, looked up): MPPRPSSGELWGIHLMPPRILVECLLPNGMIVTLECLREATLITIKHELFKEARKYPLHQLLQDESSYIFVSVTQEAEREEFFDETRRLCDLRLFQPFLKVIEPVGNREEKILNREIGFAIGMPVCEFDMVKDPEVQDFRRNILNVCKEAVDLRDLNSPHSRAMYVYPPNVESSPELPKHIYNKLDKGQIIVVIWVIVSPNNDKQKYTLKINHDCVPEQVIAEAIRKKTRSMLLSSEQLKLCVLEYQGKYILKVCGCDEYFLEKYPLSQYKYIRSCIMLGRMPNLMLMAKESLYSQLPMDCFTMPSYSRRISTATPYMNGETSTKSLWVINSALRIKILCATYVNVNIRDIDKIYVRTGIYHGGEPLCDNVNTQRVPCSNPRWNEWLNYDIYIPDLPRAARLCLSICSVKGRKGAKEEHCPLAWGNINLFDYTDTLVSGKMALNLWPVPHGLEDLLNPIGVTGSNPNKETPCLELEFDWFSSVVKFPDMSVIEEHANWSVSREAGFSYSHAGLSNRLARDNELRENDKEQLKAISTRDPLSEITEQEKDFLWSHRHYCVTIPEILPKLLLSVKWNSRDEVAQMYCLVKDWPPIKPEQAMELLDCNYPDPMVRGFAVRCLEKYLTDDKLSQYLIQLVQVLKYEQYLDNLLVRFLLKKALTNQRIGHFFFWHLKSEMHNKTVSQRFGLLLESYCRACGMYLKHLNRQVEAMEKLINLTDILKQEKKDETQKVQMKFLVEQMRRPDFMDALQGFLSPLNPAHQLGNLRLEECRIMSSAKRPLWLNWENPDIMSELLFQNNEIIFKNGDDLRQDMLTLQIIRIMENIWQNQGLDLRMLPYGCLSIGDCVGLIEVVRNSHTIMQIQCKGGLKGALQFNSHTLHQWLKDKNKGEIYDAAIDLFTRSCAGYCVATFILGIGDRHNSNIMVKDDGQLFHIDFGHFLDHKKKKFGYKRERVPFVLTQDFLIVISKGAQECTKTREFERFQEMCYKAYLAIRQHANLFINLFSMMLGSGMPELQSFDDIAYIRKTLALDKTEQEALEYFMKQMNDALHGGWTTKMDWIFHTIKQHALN
RET (human), P07949 [V804L], sequence (P07949 whole entry V804L, looked up): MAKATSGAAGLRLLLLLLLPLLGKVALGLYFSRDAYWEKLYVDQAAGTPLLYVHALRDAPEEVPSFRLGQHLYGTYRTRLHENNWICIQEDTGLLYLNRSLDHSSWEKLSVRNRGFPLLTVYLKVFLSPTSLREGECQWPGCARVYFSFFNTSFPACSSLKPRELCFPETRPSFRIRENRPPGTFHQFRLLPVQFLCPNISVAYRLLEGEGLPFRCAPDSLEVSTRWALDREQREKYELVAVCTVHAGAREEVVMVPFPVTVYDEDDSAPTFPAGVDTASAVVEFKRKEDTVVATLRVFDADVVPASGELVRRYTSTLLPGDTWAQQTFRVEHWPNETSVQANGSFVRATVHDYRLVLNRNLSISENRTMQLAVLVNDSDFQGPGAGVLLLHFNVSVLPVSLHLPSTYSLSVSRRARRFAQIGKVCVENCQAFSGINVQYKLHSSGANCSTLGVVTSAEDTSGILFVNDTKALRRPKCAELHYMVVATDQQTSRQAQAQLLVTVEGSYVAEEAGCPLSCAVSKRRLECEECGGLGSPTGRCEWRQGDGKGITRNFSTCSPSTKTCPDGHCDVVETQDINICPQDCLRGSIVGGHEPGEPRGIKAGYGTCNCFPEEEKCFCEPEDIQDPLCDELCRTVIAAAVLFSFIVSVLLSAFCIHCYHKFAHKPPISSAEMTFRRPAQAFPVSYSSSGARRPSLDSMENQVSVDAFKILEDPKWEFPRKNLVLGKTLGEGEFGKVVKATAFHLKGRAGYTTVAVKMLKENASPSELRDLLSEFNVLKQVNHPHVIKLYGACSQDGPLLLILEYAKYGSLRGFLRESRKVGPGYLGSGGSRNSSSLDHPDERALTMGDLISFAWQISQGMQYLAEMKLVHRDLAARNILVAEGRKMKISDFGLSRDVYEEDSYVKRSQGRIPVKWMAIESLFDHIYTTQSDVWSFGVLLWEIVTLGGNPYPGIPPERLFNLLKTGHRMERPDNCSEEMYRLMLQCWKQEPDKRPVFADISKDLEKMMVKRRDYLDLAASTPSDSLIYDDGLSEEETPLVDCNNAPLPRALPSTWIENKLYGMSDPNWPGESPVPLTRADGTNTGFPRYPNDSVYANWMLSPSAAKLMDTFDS
PIK3CA (human), P42336 [M1043I], sequence (P42336 whole entry M1043I, looked up): as the sequence (P42336 whole entry H1047L, looked up) above, with M1043I, L1047H counted along it
KIT (human), P10721 [A829P], sequence (P10721 whole entry A829P, looked up): as the sequence (P10721 whole entry D816H, looked up) above, with H816D, A829P counted along it
PIK3CA (human), P42336 [E542K], sequence (P42336 whole entry E542K, looked up): as the sequence (P42336 whole entry H1047L, looked up) above, with E542K, L1047H counted along it
FGFR3 (human), P22607 [G697C], sequence (P22607 whole entry G697C, looked up): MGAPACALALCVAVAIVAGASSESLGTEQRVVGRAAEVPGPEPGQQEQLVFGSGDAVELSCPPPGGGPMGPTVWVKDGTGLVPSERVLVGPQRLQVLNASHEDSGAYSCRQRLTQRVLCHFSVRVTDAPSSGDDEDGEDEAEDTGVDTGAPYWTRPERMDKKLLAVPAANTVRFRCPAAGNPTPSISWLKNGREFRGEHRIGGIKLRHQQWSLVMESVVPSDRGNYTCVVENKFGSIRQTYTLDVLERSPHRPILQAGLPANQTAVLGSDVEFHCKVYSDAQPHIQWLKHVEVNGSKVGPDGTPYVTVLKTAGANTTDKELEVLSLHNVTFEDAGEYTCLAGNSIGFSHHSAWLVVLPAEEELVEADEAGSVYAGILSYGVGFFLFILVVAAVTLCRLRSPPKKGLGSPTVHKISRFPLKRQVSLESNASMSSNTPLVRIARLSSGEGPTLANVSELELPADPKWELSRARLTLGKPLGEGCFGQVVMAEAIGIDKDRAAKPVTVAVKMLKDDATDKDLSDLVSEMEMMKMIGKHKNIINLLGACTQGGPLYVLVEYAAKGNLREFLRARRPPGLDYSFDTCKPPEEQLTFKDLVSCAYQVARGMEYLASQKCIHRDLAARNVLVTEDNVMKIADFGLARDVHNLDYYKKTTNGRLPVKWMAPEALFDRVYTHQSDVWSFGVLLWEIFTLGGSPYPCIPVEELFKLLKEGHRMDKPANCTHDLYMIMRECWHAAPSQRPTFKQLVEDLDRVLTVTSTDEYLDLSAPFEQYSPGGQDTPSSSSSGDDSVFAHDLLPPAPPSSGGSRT

For `CCN1CCN(C(=O)Cc2ccc(Nc3ncc(F)c(Nc4ccc(C(=O)Nc5ccccc5Cl)cc4)n3)cc2)CC1`, the kinase still bound, per cent of control worked out at 100% in assay [1]; 21% in [2]; 84% in assay [3]; 46% in assay [4]; 64% in [5]; 43% in [6]. Moreover, the kinase still bound, per cent of control in [7] was found to be 25%; in [8], 0.15%; in assay [9] it was 100%; in assay [10], 3.2%; in assay [11], 28%; in assay [12] it was 11%. Also, the kinase still bound, per cent of control in assay [13] worked out at 11%; in assay [14] it was 53%.
Take `CN(C)C/C=C/C(=O)Nc1cccc(Nc2ncc3c(n2)N(C)c2ccccc2C(=O)N3C)c1`: the kinase still bound, per cent of control in assay [1] turned out to be 16%; in assay [2], 12%; in assay [3] it was 39%; in [4], 14%; in assay [5], 40%; in assay [6] it was 59%. The kinase still bound, per cent of control amounted to 33% in assay [7]; 1.4% in assay [8]; 39% in assay [9]; 0.15% in assay [10]; 73% in [11]; 43% in [12]. Further, the kinase still bound, per cent of control in assay [13] is 71%; in assay [14], 6.1%.
Consider `O=c1cc(N2CCOCC2)oc2c(-c3cccc4c3sc3ccccc34)cccc12`, for which the kinase still bound, per cent of control in assay [1] came to 4.4%; in assay [2], 94%; in assay [3] it was 27%; in assay [4], 100%; in [5], 96%; in [6], 95%. In addition, the kinase still bound, per cent of control in assay [7] came out at 100%; in assay [8], 79%; in [9] it was 17%; in [10], 100%; in [11], 89%; in assay [12], 67%. Moreover, the kinase still bound, per cent of control in assay [13] turned out to be 91%; in [14] it was 100%.
On to `C=CC(=O)Nc1cccc(Nc2nc(N[C@H]3CC[C@H](N(C)C)CC3)nc3c2ncn3C(C)C)c1`, for which the kinase still bound, per cent of control came out at 100% in [1]; 99% in [2]; 100% in [3]; 79% in [4]; 23% in assay [5]; 85% in assay [6]. The kinase still bound, per cent of control turned out to be 27% in [7]; 0.85% in assay [8]; 100% in assay [9]; 80% in assay [10]; 99% in [11]; 100% in [12]. For the same compound, the kinase still bound, per cent of control in [13] is 76%; in assay [14], 45%.
With `CCN1CCN(Cc2ccc(Nc3ncc4c(n3)N(C)c3ccccc3C(=O)N4C)cc2C(F)(F)F)CC1`, the kinase still bound, per cent of control in assay [1] is 1.8%; in assay [2], 31%; in assay [3] it was 24%; in assay [4] it was 89%; in assay [5], 59%; in [6] it was 100%. Moreover, the kinase still bound, per cent of control in assay [7] turned out to be 65%; in assay [8], 3.5%; in assay [9], 15%; in assay [10], 0.9%; in assay [11], 76%; in [12] it was 71%. Also, the kinase still bound, per cent of control in assay [13] was determined as 79%; in assay [14], 18%.
As for `COc1ccc(N(C(=O)Oc2c(C)cccc2C)c2ccnc(Nc3ccc(N4CCN(C)CC4)cc3)n2)c(OC)c1`, the kinase still bound, per cent of control in [1] came to 100%; in [2], 2.6%; in assay [3] it was 100%; in assay [4], 0.25%; in [5], 56%; in assay [6], 38%. The kinase still bound, per cent of control was found to be 44% in assay [7]; 5.2% in [8]; 99% in assay [9]; 85% in assay [10]; 0% in [11]; 5.4% in assay [12]. The values for the kinase still bound, per cent of control in assay [13] and in assay [14] were 1% and 84%, respectively.
For `O=C(Nc1cccc(Nc2ncc(Br)c(NCCc3cnc[nH]3)n2)c1)N1CCCC1`, the kinase still bound, per cent of control in assay [1] is 59%; in assay [2] it was 0.8%; in [3] it was 100%; in assay [4] it was 24%; in [5], 28%; in assay [6] it was 62%. Also, the kinase still bound, per cent of control in assay [7] was determined as 11%; in assay [8] it was 0.1%; in [9], 95%; in assay [10], 0.15%; in assay [11], 65%; in assay [12], 4.6%. Besides, the kinase still bound, per cent of control in assay [13] amounted to 41%; in [14], 8.4%.
Regarding `COc1cc(C(=O)N2CCC(N3CCN(C)CC3)CC2)ccc1Nc1ncc2c(n1)N(C)c1ccccc1C(=O)N2C`, the kinase still bound, per cent of control in [1] was 20%; in assay [2], 85%; in [3], 77%; in [4] it was 100%; in [5] it was 100%; in assay [6], 100%. Further, the kinase still bound, per cent of control in assay [7] was 100%; in assay [8], 100%; in assay [9], 65%; in assay [10], 89%; in assay [11], 79%; in assay [12], 96%. In addition, the kinase still bound, per cent of control in [13] was found to be 78%; in assay [14], 5%.
`COc1cc2ncnc(-n3nc(-c4ccccn4)nc3N)c2cc1OC`: the kinase still bound, per cent of control in assay [1] stood at 17%; in [2] it was 100%; in [3], 48%; in assay [4], 24%; in assay [5], 33%; in [6], 23%. Besides, the kinase still bound, per cent of control in [7] was determined as 12%; in [8] it was 3.4%; in assay [9], 36%; in [10] it was 54%; in [11], 55%; in assay [12], 44%. For the same compound, the kinase still bound, per cent of control is 44% in [13] and 41% in assay [14].
